Data taken from patent US20230295162A1 (EÖTVÖS LORÁND TUDOMÁNYEGYETEM, priority 2020, published 2023).

Experiments:
[1] = test system: H2228 lung cancer cell line; experiment: High-throughput screening, CellTiter-Glo cell viability assay at 100 nM; type: cell-based, human; conditions: Homo sapiens, NCI-H2228, HTS, compounds at 100 nM, 72 h, read-out: cytotoxicity expressed in IC50, H2228 (results of High throughput screening)
[2] = test system: EBC-1 lung cancer cell line; experiment: as above; type: cell-based, human; conditions: Homo sapiens, EBC-1, HTS, compounds at 100 nM, 72 h, read-out: cytotoxicity expressed in IC50, EBC-1 (results of High throughput screening)
[3] = test system: PANC-1 (human pancreatic carcinoma) cells; experiment: Impedance-based viability assay (xCELLigence SP), long treatment; type: cell-based; conditions: 72 h, read-out: cytotoxicity expressed in IC50, PANC-1
Excerpt: (Gibco®/Invitrogen Corporation, New York, NY, USA).
Data obtained from each experiment represent mathematical averages.

[4] = test system: Detroit 562 (pharynx, carcinoma) cells; experiment: Cell viability assay, CellTiter-Glo (Example 21); type: cell-based, human; conditions: 72 h treatment
How it was run: (§1)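 Seeding density per line: Panc-1 750, FaDu 1000, Detroit 562 and MDA-MB-453 1500 cells/well. Viability after treatment read by CellTiter-Glo luminescence; dose-response curves fitted by four-parameter variable-slope non-linear regression.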

[5] = test system: MIA PaCa-2 (pancreas, carcinoma) cells; experiment: Cell viability assay, CellTiter-Glo (Example 21); type: cell-based, human; conditions: 72 h treatment
How it was run: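 MIA PaCa-2 pancreatic carcinoma cells were seeded at 1000 cells/well in flat-bottomed white 96 well plates (BRANDplates®, cat. no.: 781965) and treated with compound. Viability was then determined with the CellTiter-Glo® luminescent cell viability assay (Promega) following the manufacturer's instructions, with luminescence read on a BioTek Synergy 2 Multi-Mode Reader.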

[6] = test system: FaDu (pharynx, squamous cell carcinoma) cells; experiment: Cell viability assay, CellTiter-Glo (Example 21); type: cell-based, human; conditions: 72 h treatment
How it was run: as §1

[7] = test system: DU 145 (prostate, carcinoma) cells; experiment: Cell viability assay, CellTiter-Glo (Example 21); type: cell-based, human; conditions: 72 h
How it was run: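 DU 145 cancer cell viability was assessed with the CellTiter-Glo® luminescent assay (Promega, Madison, WI, USA), following the manufacturer's instructions. Cells were seeded at 1000 cells/well in flat-bottomed white 96 well plates, and after treatment luminescence was read on a BioTek Synergy 2 Multi-Mode Reader.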

[8] = test system: PC-3 (prostate, adenocarcinoma) cells; experiment: Cell viability assay, CellTiter-Glo (Example 21); type: cell-based, human; conditions: 72 h treatment
How it was run: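 PC-3 prostate adenocarcinoma cells were seeded at 1000 cells/well in flat-bottomed white 96 well plates and treated with compounds. Viability was then determined with the CellTiter-Glo® luminescent assay (Promega) following the manufacturer's instructions, with luminescence read on a BioTek Synergy 2 Multi-Mode Reader.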

[9] = test system: LNCaP (prostate, carcinoma) cells; experiment: Cell viability assay, CellTiter-Glo (Example 21); type: cell-based, human; conditions: 72 h
How it was run: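 LNCaP prostate carcinoma cell viability was assessed with the CellTiter-Glo® luminescent assay (Promega), following the manufacturer's instructions. Cells were seeded at 1500 cells/well into flat-bottomed white 96 well plates, treated, and then luminescence was read on a BioTek Synergy 2 Multi-Mode Reader. Dose-response curves were fitted in GraphPad Prism 8.4.2 by four-parameter variable-slope non-linear regression.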

[10] = test system: EBC-1 (lung, squamous cell carcinoma) cells; experiment: Cell viability assay, CellTiter-Glo (Example 21); type: cell-based, human; conditions: 72 h treatment
How it was run: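 EBC-1 lung squamous cell carcinoma cells were seeded at 1000 cells/well in flat-bottomed white 96 well plates. After compound treatment, viability was measured with the CellTiter-Glo luminescent assay following the manufacturer's instructions, and luminescence was read on a BioTek Synergy 2 Multi-Mode microplate reader.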

[11] = test system: MDA-MB-453 (breast, carcinoma) cells; experiment: Cell viability assay, CellTiter-Glo (Example 21); type: cell-based, human; conditions: 72 h treatment
How it was run: as §1

[12] = test system: Panc-1 (pancreas, carcinoma) cells; experiment: Cell viability assay, CellTiter-Glo (Example 21); type: cell-based, human; conditions: 72 h treatment
How it was run: as §1

[13] = test system: Capan-1 (pancreas, adenocarcinoma) cells; experiment: Cell viability assay, CellTiter-Glo (Example 21); type: cell-based, human; conditions: 72 h treatment
How it was run: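 Capan-1 cells were seeded at 1000 cells/well in flat-bottomed white 96 well plates (BRANDplates®), with density optimized for cell size and growth rate. Following compound treatment, viability was measured with the CellTiter-Glo® luminescent assay (Promega) per the manufacturer's instructions, reading luminescence on a BioTek Synergy 2 Multi-Mode Reader.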

[14] = test system: MDA-MB-231 (breast, adenocarcinoma) cells; experiment: Cell viability assay, CellTiter-Glo (Example 21); type: cell-based, human; conditions: 72 h treatment
How it was run: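 MDA-MB-231 breast adenocarcinoma cells were seeded at 1500 cells/well in flat-bottomed white 96 well plates (BRANDplates®, cat. no.: 781965). Following compound exposure, viability was assessed with the CellTiter-Glo® luminescent assay (Promega) following the manufacturer's protocol, and luminescence was read on a BioTek Synergy 2 Multi-Mode Reader.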

[15] = test system: SCC-25 (tongue, squamous cell carcinoma) cells; experiment: Cell viability assay, CellTiter-Glo (Example 21); type: cell-based, human; conditions: 72 h treatment
How it was run: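 SCC-25 tongue squamous cell carcinoma cells were seeded at 1000 cells/well in flat-bottomed white 96 well plates, treated with compound, and viability was then determined with the CellTiter-Glo luminescent assay (Promega) following the manufacturer's instructions. Luminescence was read on a BioTek Synergy 2 Multi-Mode Reader.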

O=C1C2=C(CCN(Cc3ccccc3)C2)N2CCN=C2N1Cc1ccc(C(F)(F)F)cc1 [I/1, reference compound] gave an IC50 [1] of over 100 nM, an IC50 [2] of under 100 nM and an IC50 [3] of 48 nM. For the same compound, the “Detroit 562 (pharynx, carcinoma) cell viability (% of control)” value ([4]; 3.7 nM) was 104.1 ± 4.8 % of control, the “Detroit 562 (pharynx, carcinoma) cell viability (% of control)” value ([4]; 11.1 nM) was 104.0 ± 17.2 % of control and the “Detroit 562 (pharynx, carcinoma) cell viability (% of control)” value ([4]; 100 nM) was 35.8 ± 14.4 % of control. For the same compound, the “Detroit 562 (pharynx, carcinoma) cell viability (% of control)” value ([4]; 300 nM) was 32.0 ± 5.0 % of control, the “MIA PaCa-2 (pancreas, carcinoma) cell viability (% of control)” value ([5]; 3.7 nM) was 105.7 ± 8.5 % of control and the “MIA PaCa-2 (pancreas, carcinoma) cell viability (% of control)” value ([5]; 11.1 nM) was 108.5 ± 11.2 % of control. The “MIA PaCa-2 (pancreas, carcinoma) cell viability (% of control)” value ([5]; 100 nM) was 43.4 ± 13.5 % of control, the “MIA PaCa-2 (pancreas, carcinoma) cell viability (% of control)” value ([5]; 300 nM) was 17.3 ± 8.8 % of control and the “FaDu (pharynx, squamous cell carcinoma) cell viability (% of control)” value (shortened to “FaDu … (% of control)”) ([6]; 3.7 nM) was 102.4 ± 7.4 % of control. For the same compound, the “FaDu … (% of control)” value ([6]; 11.1 nM) was 98.8 ± 4.7 % of control, the “FaDu … (% of control)” value ([6]; 100 nM) was 46.9 ± 5.6 % of control and the “FaDu … (% of control)” value ([6]; 300 nM) was 25.6 ± 5.3 % of control. The “DU 145 cell viability” value ([7]; 3.7 nM) was 99.0 ± 4.6 % of control, the “DU 145 cell viability” value ([7]; 11.1 nM) was 101.3 ± 4.3 % of control and the “DU 145 cell viability” value ([7]; 100 nM) was 17.5 ± 4.2 % of control. For the same compound, the “DU 145 cell viability” value ([7]; 300 nM) was 8.1 ± 2.2 % of control, the “PC-3 (prostate, adenocarcinoma) cell viability (% of control)” value ([8]; 3.7 nM) was 106.0 ± 2.8 % of control and the “PC-3 (prostate, adenocarcinoma) cell viability (% of control)” value ([8]; 11.1 nM) was 102.4 ± 3.7 % of control. The “PC-3 (prostate, adenocarcinoma) cell viability (% of control)” value ([8]; 100 nM) was 60.4 ± 5.2 % of control, the “PC-3 (prostate, adenocarcinoma) cell viability (% of control)” value ([8]; 300 nM) was 33.3 ± 3.3 % of control and the LNCaP cell viability ([9]; 3.7 nM) was 98.6 ± 5.7 % of control. For the same compound, the LNCaP cell viability ([9]; 11.1 nM) was 101.4 ± 3.3 % of control, the LNCaP cell viability ([9]; 100 nM) was 28.1 ± 1.7 % of control and the LNCaP cell viability ([9]; 300 nM) was 15.2 ± 1.7 % of control. The “EBC-1 (lung, squamous cell carcinoma) cell viability (% of control)” value ([10]; 3.7 nM) was 98.8 ± 5.8 % of control, the “EBC-1 (lung, squamous cell carcinoma) cell viability (% of control)” value ([10]; 11.1 nM) was 110.1 ± 11.9 % of control and the “EBC-1 (lung, squamous cell carcinoma) cell viability (% of control)” value ([10]; 100 nM) was 43.4 ± 6.8 % of control. The “EBC-1 (lung, squamous cell carcinoma) cell viability (% of control)” value ([10]; 300 nM) was 24.2 ± 2.1 % of control, the “MDA-MB-453 (breast, carcinoma) cell viability (% of control)” value ([11]; 3.7 nM) was 111.0 ± 7.3 % of control and the “MDA-MB-453 (breast, carcinoma) cell viability (% of control)” value ([11]; 11.1 nM) was 110.8 ± 2.3 % of control. For the same compound, the “MDA-MB-453 (breast, carcinoma) cell viability (% of control)” value ([11]; 100 nM) was 37.9 ± 1.3 % of control, the “MDA-MB-453 (breast, carcinoma) cell viability (% of control)” value ([11]; 300 nM) was 32.5 ± 0.5 % of control and the “Panc-1 (pancreas, carcinoma) cell viability (% of control)” value ([12]; 3.7 nM) was 105.8 ± 0.5 % of control. For the same compound, the “Panc-1 (pancreas, carcinoma) cell viability (% of control)” value ([12]; 11.1 nM) was 104.6 ± 7.2 % of control, the “Panc-1 (pancreas, carcinoma) cell viability (% of control)” value ([12]; 100 nM) was 81.8 ± 8.1 % of control and the “Panc-1 (pancreas, carcinoma) cell viability (% of control)” value ([12]; 300 nM) was 56.9 ± 2.4 % of control. For the same compound, the “Capan-1 (pancreas, adenocarcinoma) cell viability (% of control)” value ([13]; 3.7 nM) was 100.3 ± 4.0 % of control, the “Capan-1 (pancreas, adenocarcinoma) cell viability (% of control)” value ([13]; 11.1 nM) was 99.2 ± 3.8 % of control and the “Capan-1 (pancreas, adenocarcinoma) cell viability (% of control)” value ([13]; 100 nM) was 88.1 ± 4.2 % of control. The “Capan-1 (pancreas, adenocarcinoma) cell viability (% of control)” value ([13]; 300 nM) was 36.8 ± 3.4 % of control, the “MDA-MB-231 (breast, adenocarcinoma) cell viability (% of control)” value ([14]; 3.7 nM) was 101.0 ± 4.4 % of control and the “MDA-MB-231 (breast, adenocarcinoma) cell viability (% of control)” value ([14]; 11.1 nM) was 97.9 ± 1.1 % of control. For the same compound, the “MDA-MB-231 (breast, adenocarcinoma) cell viability (% of control)” value ([14]; 100 nM) was 87.9 ± 4.4 % of control, the “MDA-MB-231 (breast, adenocarcinoma) cell viability (% of control)” value ([14]; 300 nM) was 56.8 ± 2.1 % of control and the “SCC-25 (tongue, squamous cell carcinoma) cell viability (% of control)” value ([15]; 3.7 nM) was 108.5 ± 8.6 % of control. The “SCC-25 (tongue, squamous cell carcinoma) cell viability (% of control)” value ([15]; 11.1 nM) was 105.5 ± 12.7 % of control, the “SCC-25 (tongue, squamous cell carcinoma) cell viability (% of control)” value ([15]; 100 nM) was 76.7 ± 19.9 % of control and the “SCC-25 (tongue, squamous cell carcinoma) cell viability (% of control)” value ([15]; 300 nM) was 37.6 ± 4.3 % of control.
